Measured values as given in the NIST ThermoML archive (doi:10.1016/j.jct.2015.07.042).

Columns and labels:
[1] = activity coefficient (dimensionless); of the first substance listed, at infinite dilution; xn = mol fraction of the nth substance listed; conditions: 101 kPa, Liquid, Chromatography, x1 = 0

CCCCn1cc[n+](C)c1.COP(=O)([O-])OC [1-butyl-3-methyl-1H-imidazolium dimethylphosphate]
100 kPa, Liquid, Vibrating tube method
Conditions	mass density [kg/m3]
293.15 K	1166.5
298.15 K	1163.2
303.15 K	1159.4
308.15 K	1156.2
313.15 K	1152.7
318.15 K	1149.5
323.15 K	1146.1
328.15 K	1143
333.15 K	1139.7
338.15 K	1136.5
343.15 K	1133.3
348.15 K	1130.1
353.15 K	1126.9
358.15 K	1123.7
363.15 K	1120.6
368.15 K	1117.4

CCCCn1cc[n+](C)c1.[Cl-] [1-butyl-3-methylimidazolium chloride]
100 kPa
Conditions	mass density [kg/m3]
308.15 K, Metastable liquid, Vibrating tube method	1079.4
313.15 K, Metastable liquid, Vibrating tube method	1076.6
318.15 K, Metastable liquid, Vibrating tube method	1073.7
323.15 K, Metastable liquid, Vibrating tube method	1070.9
328.15 K, Metastable liquid, Vibrating tube method	1068.1
333.15 K, Metastable liquid, Vibrating tube method	1065.2
338.15 K, Metastable liquid, Vibrating tube method	1062.4
343.15 K, Vibrating tube method, Liquid	1059.6
348.15 K, Vibrating tube method, Liquid	1056.9
353.15 K, Vibrating tube method, Liquid	1054.3
358.15 K, Vibrating tube method, Liquid	1051.7
363.15 K, Vibrating tube method, Liquid	1049
368.15 K, Vibrating tube method, Liquid	1046.4
373.15 K, Vibrating tube method, Liquid	1043.9

CCCCn1cc[n+](C)c1.CS(=O)(=O)[O-] [1-butyl-3-methylimidazolium methanesulfonate]
100 kPa, Liquid, Vibrating tube method
Conditions	mass density [kg/m3]
333.15 K	1150.6
338.15 K	1147.4
343.15 K	1144.3
348.15 K	1141.2
353.15 K	1137.9
358.15 K	1134.9
363.15 K	1131.9
368.15 K	1128.8
373.15 K	1125.8

CCCO [propan-1-ol] + CCCCn1cc[n+](C)c1.CS(=O)(=O)[O-]
[1]
Conditions	activity coefficient
398.15 K	0.711
408.15 K	0.744
418.15 K	0.783
428.15 K	0.823

CCCO [propan-1-ol] + CCCCn1cc[n+](C)c1.[Cl-]
[1]
Conditions	activity coefficient
398.15 K	0.408
408.15 K	0.434
418.15 K	0.464
428.15 K	0.501

CC(C)O [propan-2-ol] + CCCCn1cc[n+](C)c1.COP(=O)([O-])OC
[1]
Conditions	activity coefficient
398.15 K	0.256
408.15 K	0.282
418.15 K	0.311
428.15 K	0.344

CC(C)O [propan-2-ol] + CCCCn1cc[n+](C)c1.CS(=O)(=O)[O-]
[1]
Conditions	activity coefficient
398.15 K	0.835
408.15 K	0.878
418.15 K	0.928
428.15 K	0.976

CC(C)O [propan-2-ol] + CCCCn1cc[n+](C)c1.[Cl-]
[1]
Conditions	activity coefficient
398.15 K	0.542
408.15 K	0.577
418.15 K	0.619
428.15 K	0.668

c1ccncc1 [pyridine] + CCCCn1cc[n+](C)c1.COP(=O)([O-])OC
[1]
Conditions	activity coefficient
358.15 K	1.18
368.15 K	1.23
378.15 K	1.28
388.15 K	1.35

c1ccncc1 [pyridine] + CCCCn1cc[n+](C)c1.CS(=O)(=O)[O-]
[1]
Conditions	activity coefficient
358.15 K	10.9
368.15 K	10.8
378.15 K	10.6
388.15 K	10.5

c1ccncc1 [pyridine] + CCCCn1cc[n+](C)c1.[Cl-]
[1]
Conditions	activity coefficient
358.15 K	1.47
368.15 K	1.55
378.15 K	1.64
388.15 K	1.78
